Broadly, the GI50 is the concentration at which growth is held to half of that of the control.

Here are results for seven compounds from ChEMBL document CHEMBL1649389, “Microwave supported synthesis of some novel 1,3-diarylpyrazino[1,2-a]benzimidazole derivatives and investigation of their anticancer activities” (2011).

Holding throughout (type): functional
A short description of assay [1]: Cytotoxicity against human prostate cancer cells assessed as cell growth after 48 hrs by SRB assay. Conditions: Cancer cell lines. A general note: Sulforhodamine B stains cellular protein and so reports cell mass.
A short description of assay [2]: Cytotoxicity against human melanoma cells assessed as cell growth after 48 hrs by SRB assay.
Assay [3] can be described thus: Cytotoxicity against human colon cancer cells assessed as cell growth after 48 hrs by SRB assay. The note with it: Cancer cell lines.
Assay [4] can be described thus: Cytotoxicity against human renal cancer cells assessed as cell growth after 48 hrs by SRB assay. The note with it: Cancer cell lines.
Assay [5] in a line: Cytotoxicity against human ovarian cancer cells assessed as cell growth after 48 hrs by SRB assay. The note with it: Cancer cell lines.
The nature of assay [6]: Cytotoxicity against human leukemia cells assessed as cell growth after 48 hrs by SRB assay.
The nature of assay [7]: Cytotoxicity against human breast cancer cells assessed as cell growth after 48 hrs by SRB assay. The note with it: Cancer cell lines.
In a further assay the test system is NSCLC. The experiment in a line: Cytotoxicity against human NSCLC cells assessed as cell growth after 48 hrs by SRB assay.
The nature of assay [8]: Cytotoxicity against human CNSC cells assessed as cell growth after 48 hrs by SRB assay.

With `COc1ccc(C(=O)c2nc3ccccc3n2CC(=O)c2ccc(Cl)cc2)cc1`, the GI50 is 3.02 µM in assay [1]; 2.45 µM in assay [2]; 2.51 µM in assay [3]; 3.72 µM in assay [4]; 5.25 µM in assay [5]; 0.724 µM in assay [6]. For the same compound, the figures for the GI50 (in assay [7]; with NSCLC; in assay [8]) were 3.47 µM, 14.5 µM and 3.39 µM, respectively.

On to `COc1ccc(C(=O)Cn2c(C(=O)c3ccccc3)nc3ccccc32)cc1`, for which the GI50 in assay [1] was 3.24 µM; in assay [2] it was 2.95 µM; in assay [3] it was 1.51 µM; in [4], 3.24 µM; in assay [5], 3.63 µM; in assay [6] it was 0.724 µM. Besides, the GI50 in [7] was 2.24 µM; with NSCLC, 9.33 µM; in [8], 3.98 µM.

On to `COc1ccc(C(=O)Cn2c(C(=O)c3ccc(Cl)cc3)nc3ccccc32)cc1`, for which the GI50 in assay [1] is 24 µM; in assay [2], 9.55 µM; in [3], 5.01 µM; in assay [4] it was 14.1 µM; in assay [5] it was 17.8 µM; in assay [6], 2.57 µM. Besides, the GI50 in assay [7] is 6.17 µM; with NSCLC, 18.6 µM; in assay [8], 16.6 µM.

For `O=C(Cn1c(C(=O)c2ccccc2)nc2ccccc21)c1ccc(F)cc1`, the GI50 in assay [1] is 13.5 µM; in [2], 4.57 µM; in assay [3], 3.55 µM; in assay [4], 2.75 µM; in assay [5], 10.7 µM; in [6], 1.41 µM. The GI50 was 3.98 µM in [7], 18.6 µM in the assay with NSCLC and 8.51 µM in assay [8].

Turning to `COc1ccc(C(=O)Cn2c(C(=O)c3ccc(OC)cc3)nc3ccccc32)cc1`, the GI50 in [1] is 2.95 µM; in [2] it was 3.24 µM; in [3], 1.26 µM; in assay [4] it was 3.89 µM; in assay [5], 3.02 µM; in assay [6] it was 0.741 µM. In addition, the GI50 in [7] is 2.4 µM; in the assay with NSCLC it was 15.1 µM; in assay [8], 3.31 µM.

For `O=C(Cn1c(C(=O)c2ccccc2)nc2ccccc21)c1ccccc1`, the GI50 in assay [1] is 72.4 µM; in assay [2], 100 µM; in [3] it was 63.1 µM; in assay [4], 87.1 µM; in assay [5], 100 µM; in assay [6] it was 52.5 µM. Besides, the figures for the GI50 (in [7]; in the assay with NSCLC; in assay [8]) were 9.33 µM, 69.2 µM and 83.2 µM, respectively.

As for `N[C@@H](Cc1ccc(N(CCCl)CCCl)cc1)C(=O)O`, the GI50 was 32.4 µM in assay [1]; 8.32 µM in [2]; 7.76 µM in assay [3]; 10.2 µM in assay [4]; 6.61 µM in assay [5]; 3.31 µM in assay [6]. For the same compound, the GI50 is 16.2 µM in assay [7], 6.76 µM in the assay on NSCLC and 7.59 µM in [8].
